From US8648105B2, “Diarylthiohydantoin compounds” (The Regents of the University of California, priority 2006, dated 2014)

What was measured:
AR [1] = target: T1, AR (Homo sapiens, UniProt P10275); assay type: cell-based; design: Fold induction, AR response reporter; settings: for luciferase activity in LNCaP-AR cells: 125 nM to 1000 nM; for luciferase activity in LNCaP-AR cells / rank by relative luciferase activity, most active to least active: FIG. 3; for rank by relative luciferase activity, most active to least active: 500 nM; for inhibitory activity on AR response reporter: hormone refractory LNCaP-AR
T1 sequence (P10275 1-920): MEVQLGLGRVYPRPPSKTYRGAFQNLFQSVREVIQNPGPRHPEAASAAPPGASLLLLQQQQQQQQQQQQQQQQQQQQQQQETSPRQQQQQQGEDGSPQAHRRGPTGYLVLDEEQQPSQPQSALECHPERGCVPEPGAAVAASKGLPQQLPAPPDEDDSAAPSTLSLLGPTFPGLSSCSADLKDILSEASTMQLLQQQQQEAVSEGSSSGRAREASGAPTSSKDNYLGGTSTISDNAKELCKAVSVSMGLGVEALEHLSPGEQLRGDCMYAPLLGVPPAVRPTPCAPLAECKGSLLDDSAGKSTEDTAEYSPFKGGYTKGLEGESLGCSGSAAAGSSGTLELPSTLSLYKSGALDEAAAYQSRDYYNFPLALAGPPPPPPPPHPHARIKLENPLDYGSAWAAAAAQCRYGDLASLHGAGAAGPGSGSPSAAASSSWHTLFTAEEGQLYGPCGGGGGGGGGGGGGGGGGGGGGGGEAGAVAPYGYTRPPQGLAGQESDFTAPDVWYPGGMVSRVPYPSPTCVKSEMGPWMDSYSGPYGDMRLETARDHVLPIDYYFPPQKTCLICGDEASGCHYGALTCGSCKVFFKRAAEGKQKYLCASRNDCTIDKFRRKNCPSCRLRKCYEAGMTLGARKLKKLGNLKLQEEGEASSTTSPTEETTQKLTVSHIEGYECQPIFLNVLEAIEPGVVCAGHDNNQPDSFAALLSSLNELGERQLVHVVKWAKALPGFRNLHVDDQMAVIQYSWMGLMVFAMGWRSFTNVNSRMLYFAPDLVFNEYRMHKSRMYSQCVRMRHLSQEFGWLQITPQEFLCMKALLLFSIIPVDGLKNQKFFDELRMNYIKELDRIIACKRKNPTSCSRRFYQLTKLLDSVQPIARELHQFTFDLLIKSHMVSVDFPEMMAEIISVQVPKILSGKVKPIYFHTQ
Experimental: The compounds were subjected to tests using an artificial AR response reporter system in a hormone refractory prostate cancer cell line. […] After two days of incubation, reporter activities were assayed.

AR [2] = target: T1, AR; assay type: cell-based; design: Fold induction, AR response reporter; settings: LN-AR, absence of R1881
Experimental: Activities of AR response reporter were measured.

AR [3] = target: T1, AR; assay type: cell-based; design: Fold induction, AR response reporter; settings: AR over expressed LNCaP, absence of R1881
MCF7 = assay: Growth effect on MCF7 cells; assay type: cell-based; settings: MCF7 breast cancer cells
3T3 = assay: Growth effect on 3T3 cells; assay type: cell-based; settings: 3T3 normal mouse fibroblast cell line
DU-145 cells = assay: MTS growth assay in DU-145 cells; assay type: cell-based; settings: DU-145, lacks AR expression
SkBr3 = assay: Growth effect on SkBr3 cells; assay type: cell-based; settings: SkBr3 breast cancer cells
[4] = Ranking of compounds in tiers for utility in treating prostate cancer
From the text: The placement of compounds into tiers was based on available data coupled with analytical judgment. Data considered included in vitro assays (AR response reporter system in LNCaP cell line, PSA level measurement, MTS mitochondrial assay) and in vivo experiments (tumor size measured directly or by emission induced by luciferase reporter gene, pharmacokinetic assays based on blood plasma levels). Not every compound was subjected to each assay. Not all data that was generated is shown. Judgment was applied in ranking compounds relative to each other for their utility in treating prostate cancer, in particular when ranking two compounds for which the same experiments were not performed.

Row | Compound | agonistic activity on AR response reporter (AR [2]) | agonistic activity on secreted PSA (AR [3]) | inhibitory activity on AR response reporter (AR [1]) | other results
1 | COC(=O)c1ccc(N2C(=S)N(c3ccc(C#N)c(C(F)(F)F)c3)C(=O)C2(C)C)cc1 [NC67] | – | – | – | luciferase activity in LNCaP-AR cells (AR [1]): acted to reduce luciferase activity; rank by relative luciferase activity, most active to least active (AR [1]): NC67>NC68>NC66>NC69>NC77=NC53>bicalutamide
2 | Cc1ccc(N2C(=S)N(c3ccc(C#N)c(C(F)(F)F)c3)C(=NC(=S)Nc3ccccc3)C23CCC3)cc1 [NC35, 1-[7-(4-cyano-3-trifluoromethyl-phenyl)-6-thioxo-5-p-tolyl-5,7-diaza-spiro[3.4]oct-8-ylidene]-3-phenyl-thiourea] | no agonistic activity | no agonistic activities | – | –
3 | Cc1ccc(N2C(=S)N(c3ccc(C#N)c(C(F)(F)F)c3)C(=NC(=S)Nc3ccc(C#N)c(C(F)(F)F)c3)C23CCC3)cc1 [NC36, 1-(4-Cyano-3-trifluoromethyl-phenyl)-3-[7-(4-cyano-3-trifluoromethyl-phenyl)-6-thioxo-5-p-tolyl-5,7-diaza-spiro[3.4]oct-8-ylidene]-thiourea] | no agonistic activity | no agonistic activities | – | –
4 | CNC(=O)c1ccc(N2C(=S)N(c3ccc(C#N)c(C(F)(F)F)c3)C(=O)C2(C)C)cc1 [NC68] | – | – | – | luciferase activity in LNCaP-AR cells (AR [1]): acted to reduce luciferase activity; rank by relative luciferase activity, most active to least active (AR [1]): NC67>NC68>NC66>NC69>NC77=NC53>bicalutamide; luciferase activity (comparison) (AR [1]; LN/AR cell line, 125 nmol to 1000 nmol): less than the luciferase activity upon exposure to NC103
5 | Cc1ccc(N2C(=S)N(c3ccc(C#N)c(C(F)(F)F)c3)C(=O)C2(C)C)cc1 [NC2, 4-[3-(4-methylphenyl)-4,4-dimethyl-5-oxo-2-thioxoimidazolidin-1-yl]-2-trifluoromethyl-benzonitrile] | – | – | – | growth effect (MCF7): no growth effect; growth effect (3T3): no growth effect; growth inhibitory effect (DU-145 cells): no growth inhibitory effect; growth effect (SkBr3): no growth effect
6 | CN1C(=O)N(c2ccc(C#N)c(C(F)(F)F)c2)C(=O)C12CCC2 [NC25, 4-(5-methyl-6,8-dioxo-5,7-diazaspiro[3.4]oct-7-yl)-2-trifluoromethylbenzonitrile, reference compound] | strongly activated AR | stimulated PSA expression | no inhibitory activities | –
7 | CN1C(=O)N(c2ccc(C#N)c(C(F)(F)F)c2)C(=O)C12CCCC2 [NC27, 4-(1-methyl-2,4-dioxo-1,3-diaza-spiro[4.4]non-3-yl)-2-trifluoromethylbenzonitrile, reference compound] | strongly activated AR | – | no inhibitory activities | –
8 | N#Cc1ccc(N2C(=O)C3(CCCC3)NC2=S)cc1C(F)(F)F [NC28, 4-(4-oxo-2-thioxo-1,3-diazaspiro[4.4]non-3-yl)-2-trifluoromethylbenzonitrile, reference compound] | strongly activated AR | – | no inhibitory activities | –
9 | CC1(C)C(=O)N(c2ccc(C#N)c(C(F)(F)F)c2)C(=S)N1CCCCO [Example 29, 4-[3-(4-hydroxybutyl)-4,4-dimethyl-5-oxo-2-thioxoimidazolidin-1-yl]-2-trifluoromethylbenzonitrile, reference compound] | strongly activated AR | stimulated PSA expression | – | IC50 (nM) Reporter (AR [1]; LNCaP-AR, 100 pM R1881, two days, No = did not inhibit AR response reporter): No (*)
10 | CCNC(=S)N=C1N(c2ccc(C#N)c(C(F)(F)F)c2)C(=S)N(c2ccc(C)cc2)C1(C)C [NC34, 1-[3-(4-cyano-3-trifluoromethyl-phenyl)-5,5-dimethyl-2-thioxo-1-p-tolyl-imidazolidin-4-ylidene]-3-ethyl-thiourea] | no agonistic activity | no agonistic activities | – | –
11 | CN1C(=S)N(c2ccc(C#N)c(C(F)(F)F)c2)C(=O)C12CCCC2 [NC26, 4-(1-methyl-4-oxo-2-thioxo-1,3-diazaspiro[4.4]non-3-yl)-2-trifluoromethylbenzonitrile, reference compound] | strongly activated AR | stimulated PSA expression | no inhibitory activities | –
12 | N#Cc1ccc(N2C(=O)C3(CCC3)N(c3ccc(O)cc3F)C2=S)cc1C(F)(F)F [NC69] | – | – | – | luciferase activity in LNCaP-AR cells (AR [1]): acted to reduce luciferase activity; rank by relative luciferase activity, most active to least active (AR [1]): NC67>NC68>NC66>NC69>NC77=NC53>bicalutamide
13 | CN1C(=S)N(c2ccc(C#N)c(C(F)(F)F)c2)C(=O)C12CCC2 [NC24, 4-(5-methyl-8-oxo-6-thioxo-5,7-diazaspiro[3.4]oct-7-yl)-2-trifluoromethylenzonitrile, reference compound] | strongly activated AR | stimulated PSA expression | no inhibitory activities | –
14 | CS(=O)(=O)c1ccc(N2C(=S)N(c3ccc(C#N)c(C(F)(F)F)c3)C(=O)C23CCC3)cc1 [NC66] | – | – | – | luciferase activity in LNCaP-AR cells (AR [1]): acted to reduce luciferase activity; rank by relative luciferase activity, most active to least active (AR [1]): NC67>NC68>NC66>NC69>NC77=NC53>bicalutamide
15 | Cc1ccc(N2C(=S)N(c3ccc(C#N)c(Cl)c3)C(=O)C2(C)C)cc1 [NC107] | – | – | – | activity remarks in the ranking [4]: very poor activity
16 | Cc1ccc(N2C(=S)N(c3ccc(C#N)c(I)c3)C(=O)C2(C)C)cc1 [NC63] | – | – | – | activity remarks in the ranking [4]: good activity
